Activity calls are given as the source filed them. The rule behind the calls is not given here. Peptide text beside a SMILES is read from it.
Columns and labels:
[1] = Drug uptake in endoplasmic reticulum of human HepG2 cells assessed as pearsons co-efficient of ER tracker green-yellow signal at 2 uM incubated for 24 hrs by laser confocal microscopy; assay type: ADME, subcellular; conditions: hepg2, 24 h
[2] = test system: HepG2; test: Induction of cell cycle arrest at S phase in human HepG2 cells at 1 uM under 10 J/cm2 light irradiation at 660 nm by flow cytometry relative to control; assay type: functional
[3] = molecular target: Glypican-3 (Homo sapiens, UniProt P51654); test: Binding affinity to GPC3 (unknown origin) assessed as dissociation constant by fluorescence polarization assay
Sequence of Glypican-3 (P51654 25-358 limits assumed): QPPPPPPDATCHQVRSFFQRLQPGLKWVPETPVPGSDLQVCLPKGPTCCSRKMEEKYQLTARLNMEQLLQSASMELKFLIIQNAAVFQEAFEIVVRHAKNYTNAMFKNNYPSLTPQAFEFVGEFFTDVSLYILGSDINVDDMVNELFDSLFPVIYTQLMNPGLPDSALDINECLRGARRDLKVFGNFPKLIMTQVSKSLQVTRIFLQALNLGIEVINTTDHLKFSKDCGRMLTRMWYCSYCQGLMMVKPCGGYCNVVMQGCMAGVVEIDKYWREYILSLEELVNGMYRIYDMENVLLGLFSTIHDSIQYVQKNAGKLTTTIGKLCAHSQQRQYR
Sequence of Glypican-3 (P51654 359-554 limits assumed): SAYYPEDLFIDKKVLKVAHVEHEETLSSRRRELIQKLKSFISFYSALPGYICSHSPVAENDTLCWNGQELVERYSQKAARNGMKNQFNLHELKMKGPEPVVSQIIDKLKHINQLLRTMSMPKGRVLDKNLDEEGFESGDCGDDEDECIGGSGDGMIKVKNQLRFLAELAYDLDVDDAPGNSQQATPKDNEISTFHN

[4] = Drug uptake in human HepG2 cells at 10 uM by confocal microscopy; assay type: ADME, cell-based; conditions: hepg2, 10 µM, TDE = time-dependent effect, time 4-24 hrs
[5] = test system: HepG2; test: Induction of apoptosis in human HepG2 cells assessed as late apoptotic cells under dark condition at 5 uM incubated for 24 hrs by Annexin V-FITC/PI staining based flow cytometry relative to control; assay type: functional
[6] = Drug uptake in human Huh-7 cells at 10 uM by confocal microscopy; assay type: ADME, cell-based; conditions: huh-7, 10 µM, TDE = time-dependent effect, time 4-24 hrs
[7] = Toxicity in BALB/C nude mouse model xenografted with human HepG2 cells assessed as damage in liver at 1 to 2 uM/kg, iv administered every two days for 21 days along with 250 mW/cm2 light irradiation at 660 nm for 10 mins at 1 hr post-compound administration by H and E staining based analysis; assay type: organism-based; conditions: in vivo, 505.17 h, dose 1-2 µM/Kg, time 505.166 hrs
[8] = test system: HepG2; test: Antitumor activity against human HepG2 cells xenografted in BALB/C nude mouse model assessed as decrease in Ki67 expression at 1 to 2 uM/kg, iv administered every two days for 21 days along with 250 mW/cm2 light irradiation at 660 nm for 10 mins at 1 hr post-compound administration by […] based analysis; assay type: functional, organism-based; conditions: dose 1-2 µM/Kg, time 505.166 hrs
[9] = test system: HepG2; test: Induction of apoptosis in human HepG2 cells assessed as early apoptotic cells at 5 uM incubated for 24 hrs followed by 10 J/cm2 of light irradiation at 660 nm measured after 24 hrs by Annexin V-FITC/PI staining based flow cytometry relative to control; assay type: functional; conditions: time 48 hrs
[10] = Toxicity in BALB/C nude mouse model xenografted with human HepG2 cells assessed as damage in kidney at 1 to 2 uM/kg, iv administered every two days for 21 days along with 250 mW/cm2 light irradiation at 660 nm for 10 mins at 1 hr post-compound administration by H and E staining based analysis; assay type: organism-based; conditions: in vivo, 505.17 h, dose 1-2 µM/Kg, time 505.166 hrs
[11] = Drug distribution in tumor of BALB/C nude mouse model xenografted with human HepG2 cells at 1 uM/kg, iv measured after 2 hrs by fluorescence spectrophotometry; assay type: ADME, organism-based, Neoplasm; conditions: in vivo
[12] = test system: HepG2; test: Induction of apoptosis in human HepG2 cells assessed as early apoptotic cells under dark condition at 5 uM incubated for 24 hrs by Annexin V-FITC/PI staining based flow cytometry relative to control; assay type: functional
[13] = Drug distribution in liver of BALB/C nude mouse model xenografted with human HepG2 cells at 1 to 2 uM/kg, iv measured for 1 to 4 hrs by fluorescence imaging analysis; assay type: ADME, organism-based; conditions: in vivo, dose lower 1 µM/Kg, time lower 1 hrs, dose upper 2 µM/Kg, time upper 4 hrs
[14] = Drug uptake in endoplasmic reticulum of human Huh-7 cells at 2 uM incubated for 24 hrs by ER tracker green probe based laser confocal microscopy; assay type: ADME, subcellular; conditions: huh-7, 24 h
[15] = test system: HepG2; test: Induction of apoptosis in human HepG2 cells assessed as late apoptotic cells under dark condition at 2.5 uM incubated for 24 hrs by Annexin V-FITC/PI staining based flow cytometry relative to control; assay type: functional
[16] = test system: HepG2; test: Induction of apoptosis in human HepG2 cells assessed as necrotic cells under dark condition at 2.5 uM incubated for 24 hrs by Annexin V-FITC/PI staining based flow cytometry relative to control; assay type: functional
[17] = Drug distribution in tumor of BALB/C nude mouse model xenografted with human Huh-7 cells at 1 to 2 uM/kg, iv measured for 1 to 6 hrs by fluorescence imaging analysis; assay type: ADME, organism-based, Neoplasm; conditions: in vivo, dose lower 1 µM/Kg, time lower 1 hrs, dose upper 2 µM/Kg, time upper 6 hrs
[18] = Drug distribution in spleen of BALB/C nude mouse model xenografted with human HepG2 cells at 1 to 2 uM/kg, iv measured for 1 to 4 hrs by fluorescence imaging analysis; assay type: ADME, organism-based; conditions: in vivo, dose lower 1 µM/Kg, time lower 1 hrs, dose upper 2 µM/Kg, time upper 4 hrs
[19] = Drug distribution in tumor of BALB/C nude mouse model xenografted with human HepG2 cells administered intravenously measured after 2 hrs by fluorescence spectrophotometry; assay type: ADME, tissue-based, Neoplasm; conditions: in vivo, iv, dose 1-2 µM/Kg
[20] = molecular target: chymotrypsin (Homo sapiens, UniProt P17538+P40313+Q6GPI1+Q99895); test: Stability of compound assessed as chymotrypsin (unknown origin)-mediated compound degradation in PBS at pH 7.4 by measuring half life; assay type: ADME, protein assay
[21] = test system: Huh-7; test: Induction of cell cycle arrest at S phase in human Huh-7 cells at 1 uM under 10 J/cm2 light irradiation at 660 nm by flow cytometry; assay type: functional, cell-based
[22] = Drug uptake in lysosome of human Huh-7 cells at 2 uM incubated for 24 hrs by lyso tracker green DND-26 probe based laser confocal microscopy; assay type: ADME, subcellular; conditions: huh-7, 24 h
[23] = Drug uptake in human HUVEC cells at 500 nM incubated for 0.5 hrs by flow cytometry; assay type: ADME, cell-based; conditions: 0.5 µM
[24] = test system: HepG2; test: Induction of apoptosis in human HepG2 cells assessed as necrotic cells under dark condition at 5 uM incubated for 24 hrs by Annexin V-FITC/PI staining based flow cytometry relative to control; assay type: functional
[25] = Toxicity in BALB/C nude mouse model xenografted with human HepG2 cells assessed as damage in spleen at 1 to 2 uM/kg, iv administered every two days for 21 days along with 250 mW/cm2 light irradiation at 660 nm for 10 mins at 1 hr post-compound administration by H and E staining based analysis; assay type: organism-based; conditions: in vivo, 505.17 h, dose 1-2 µM/Kg, time 505.166 hrs
[26] = Drug distribution in tumor of BALB/C nude mouse model xenografted with human Huh-7 cells administered intravenously measured after 2 hrs by fluorescence spectrophotometry; assay type: ADME, tissue-based, Neoplasm; conditions: in vivo, iv, dose 1-2 µM/Kg
[27] = Toxicity in BALB/C nude mouse model xenografted with human HepG2 cells assessed as change in lung weight at 1 to 2 uM/kg, iv administered every two days for 21 days along with 250 mW/cm2 light irradiation at 660 nm for 10 mins at 1 hr post-compound administration; assay type: organism-based; conditions: in vivo, 505.17 h, dose 1-2 µM/Kg, time 505.166 hrs
[28] = Drug distribution in heart of BALB/C nude mouse model xenografted with human HepG2 cells at 1 to 2 uM/kg, iv measured for 1 to 4 hrs by fluorescence imaging analysis; assay type: ADME, organism-based; conditions: in vivo, dose lower 1 µM/Kg, time lower 1 hrs, dose upper 2 µM/Kg, time upper 4 hrs
[29] = test system: HepG2; test: Antiproliferative activity against human HepG2 cells under 10 J/cm2 light irradiation at 660 nm by CCK8 assay; assay type: functional, cell-based; conditions: HepG2, light or radiation study
[30] = Drug distribution in kidney of BALB/C nude mouse model xenografted with human HepG2 cells at 1 to 2 uM/kg, iv measured for 1 to 4 hrs by fluorescence imaging analysis; assay type: ADME, organism-based; conditions: in vivo, dose lower 1 µM/Kg, time lower 1 hrs, dose upper 2 µM/Kg, time upper 4 hrs
[31] = test system: HepG2; test: Induction of apoptosis in human HepG2 cells assessed as late apoptotic cells at 2.5 uM incubated for 24 hrs followed by 10 J/cm2 of light irradiation at 660 nm measured after 24 hrs by Annexin V-FITC/PI staining based flow cytometry relative to control; assay type: functional; conditions: time 48 hrs

C=Cc1c(C)c2cc3nc(c(CC(=O)O)c4[nH]c(cc5nc(cc1[nH]2)C(C)=C5CC)c(C)c4C(=O)NCCCC(=O)N[C@@H](CC(=O)O)C(=O)N[C@@H](Cc1cnc[nH]1)C(=O)N[C@@H](CC(C)C)C(=O)N[C@@H](C)C(=O)N[C@@H](CO)C(=O)N[C@@H](CC(C)C)C(=O)N[C@@H](Cc1c[nH]c2ccccc12)C(=O)N[C@@H](Cc1c[nH]c2ccccc12)C(=O)NCC(=O)N[C@H](C(=O)N[C@@H](CCC(=O)O)C(=O)N[C@@H](CC(C)C)C(=O)O)[C@@H](C)O)[C@@H](CCC(=O)O)[C@@H]3C (HELM PEPTIDE1{[C=Cc1c(C)c2cc3nc(c(CC(=O)O)c4[nH]c(cc5nc(cc1[nH]2)C(C)=C5CC)c(C)c4C(=O)[*:2])[C@@H](CCC(=O)O)[C@@H]3C].[O=C(CCCN[*:1])[*:2]].D.H.L.A.S.L.W.W.G.T.E.L}$$$$V2.0)
Activity [1]: 0.65
Activity [2]: 27.7%
Kd [3]: 0.38 µM
Drug uptake [4]: Tde
Activity [5]: 1.7%
Drug uptake [6]: Tde
Activity [7]: Non-Toxic
Activity [8]: Active
Activity [9]: 8.4%
Activity [10]: Non-Toxic
Drug uptake [11]: Active
Activity [12]: 2.3%
Drug uptake [13]: Not Active
Drug uptake [14]: Active
Activity [15]: 2%
Activity [16]: 0.2%
Drug uptake [17]: Active
Drug uptake [18]: Not Active
Drug uptake [19]: Dose-Dependent Effect
half-life [20]: 7.6 h
Activity [21]: Active
Drug uptake [22]: Active
Drug uptake [23]: Not Active
Activity [24]: 0.1%
Activity [25]: Non-Toxic
Drug uptake [26]: Active
Activity [27]: Non-Toxic
Drug uptake [28]: Not Active
IC50 [29]: 0.82 µM
Drug uptake [30]: Not Active
Activity [31]: 17.8%
